Results from patent US4652566A, “Benzofuran derivatives, processes for preparing the same and antihypertensive agents containing the same” (Kaken Pharmaceutical Co., Ltd., priority 1984, dated 1987).
Counter-ions that a name gives are not always drawn. Like-named read-outs stand apart in the source and are kept apart here.

Columns and labels:
[1] = Antihypertensive effect and effect on heart rate in spontaneously hypertensive rat (SHR); type: in vivo; conditions: po, single dose
Method: [Antihypertensive effect and effect on a heart rate on rat suffering from a spontaneously hypertensive rat (SHR)]
A blood pressure was measured under no anesthetic condition by means of an apparatus for recording a blood pressure of a tail artery and a heart rate (Riken Kaihatsu Co., Ltd.) (PS-802) and at the same time a heart rate was also measured.
Each of test compounds was dissolved or suspended in an aqueous solution containing 5% by weight of acasia and the obtained solution or suspension was administered once orally to SHR which had been kept under a fast condition for one night. A blood pressure and a heart rate were measured before administration and after one hour, three hours, five hours and seven hours of it and the maximum value of changes were calculated by comparing the value measured before administration with the value measured after administration.
For the purpose of a comparison, the same experiment as mentioned above was carried out on both Labetalol and Diltiazem as mentioned above.
With respect to a dosage, 100 mg/kg and 10 mg/kg as to compounds obtained by Examples 2, 5, 6, 9 and 18 to 23 were respectively administered, 100 mg/kg as to compounds obtained by Examples 1, 3, 4, 7 and 10 to 17 was respectively administered.

[2] = Accute toxicity test (LD50 value); conditions: mouse, in vivo; mice; single oral administration; deaths by seventh day; Litchfield-Wilcoxon
Method: [Accute toxicity test (LD50 value)]
The experiment was carried out using six weeks old ddy male mice.
Each of test compounds was suspended in an aqueous solution containing 5% by weight of acasia and the suspension was administered compulsorily once orally with a gastric probe. Within six hours after the start of the administration, the behavior of tested mice were observed consecutively. Thereafter, the observation was made at an interval of twenty four hours during 7 days and an accumulative number of deaths seventh day since the start of the administration was measured.
LD50 value was calculated according to the Litchfield-Wilcoxon method.

[3] = biological target: T1, calcium antagonism (thoracic aorta spiral specimen, contraction by calcium) (Cavia porcellus, UniProt O35505); assay: Calcium antagonistic effect (contraction response by calcium of spiral thoracic aorta specimen, Magnus method); design: species or system Hartly male giunea pig; conditions: guinea pig thoracic aorta, antagonism of calcium contraction; for Kb: read-out: Calcium antagonistic effect, pA2 value (converted)
T1 construct: from tissue; host or cells: thoracic aorta spiral strip of male Hartley guinea pig
T1 sequence (O35505 whole entry): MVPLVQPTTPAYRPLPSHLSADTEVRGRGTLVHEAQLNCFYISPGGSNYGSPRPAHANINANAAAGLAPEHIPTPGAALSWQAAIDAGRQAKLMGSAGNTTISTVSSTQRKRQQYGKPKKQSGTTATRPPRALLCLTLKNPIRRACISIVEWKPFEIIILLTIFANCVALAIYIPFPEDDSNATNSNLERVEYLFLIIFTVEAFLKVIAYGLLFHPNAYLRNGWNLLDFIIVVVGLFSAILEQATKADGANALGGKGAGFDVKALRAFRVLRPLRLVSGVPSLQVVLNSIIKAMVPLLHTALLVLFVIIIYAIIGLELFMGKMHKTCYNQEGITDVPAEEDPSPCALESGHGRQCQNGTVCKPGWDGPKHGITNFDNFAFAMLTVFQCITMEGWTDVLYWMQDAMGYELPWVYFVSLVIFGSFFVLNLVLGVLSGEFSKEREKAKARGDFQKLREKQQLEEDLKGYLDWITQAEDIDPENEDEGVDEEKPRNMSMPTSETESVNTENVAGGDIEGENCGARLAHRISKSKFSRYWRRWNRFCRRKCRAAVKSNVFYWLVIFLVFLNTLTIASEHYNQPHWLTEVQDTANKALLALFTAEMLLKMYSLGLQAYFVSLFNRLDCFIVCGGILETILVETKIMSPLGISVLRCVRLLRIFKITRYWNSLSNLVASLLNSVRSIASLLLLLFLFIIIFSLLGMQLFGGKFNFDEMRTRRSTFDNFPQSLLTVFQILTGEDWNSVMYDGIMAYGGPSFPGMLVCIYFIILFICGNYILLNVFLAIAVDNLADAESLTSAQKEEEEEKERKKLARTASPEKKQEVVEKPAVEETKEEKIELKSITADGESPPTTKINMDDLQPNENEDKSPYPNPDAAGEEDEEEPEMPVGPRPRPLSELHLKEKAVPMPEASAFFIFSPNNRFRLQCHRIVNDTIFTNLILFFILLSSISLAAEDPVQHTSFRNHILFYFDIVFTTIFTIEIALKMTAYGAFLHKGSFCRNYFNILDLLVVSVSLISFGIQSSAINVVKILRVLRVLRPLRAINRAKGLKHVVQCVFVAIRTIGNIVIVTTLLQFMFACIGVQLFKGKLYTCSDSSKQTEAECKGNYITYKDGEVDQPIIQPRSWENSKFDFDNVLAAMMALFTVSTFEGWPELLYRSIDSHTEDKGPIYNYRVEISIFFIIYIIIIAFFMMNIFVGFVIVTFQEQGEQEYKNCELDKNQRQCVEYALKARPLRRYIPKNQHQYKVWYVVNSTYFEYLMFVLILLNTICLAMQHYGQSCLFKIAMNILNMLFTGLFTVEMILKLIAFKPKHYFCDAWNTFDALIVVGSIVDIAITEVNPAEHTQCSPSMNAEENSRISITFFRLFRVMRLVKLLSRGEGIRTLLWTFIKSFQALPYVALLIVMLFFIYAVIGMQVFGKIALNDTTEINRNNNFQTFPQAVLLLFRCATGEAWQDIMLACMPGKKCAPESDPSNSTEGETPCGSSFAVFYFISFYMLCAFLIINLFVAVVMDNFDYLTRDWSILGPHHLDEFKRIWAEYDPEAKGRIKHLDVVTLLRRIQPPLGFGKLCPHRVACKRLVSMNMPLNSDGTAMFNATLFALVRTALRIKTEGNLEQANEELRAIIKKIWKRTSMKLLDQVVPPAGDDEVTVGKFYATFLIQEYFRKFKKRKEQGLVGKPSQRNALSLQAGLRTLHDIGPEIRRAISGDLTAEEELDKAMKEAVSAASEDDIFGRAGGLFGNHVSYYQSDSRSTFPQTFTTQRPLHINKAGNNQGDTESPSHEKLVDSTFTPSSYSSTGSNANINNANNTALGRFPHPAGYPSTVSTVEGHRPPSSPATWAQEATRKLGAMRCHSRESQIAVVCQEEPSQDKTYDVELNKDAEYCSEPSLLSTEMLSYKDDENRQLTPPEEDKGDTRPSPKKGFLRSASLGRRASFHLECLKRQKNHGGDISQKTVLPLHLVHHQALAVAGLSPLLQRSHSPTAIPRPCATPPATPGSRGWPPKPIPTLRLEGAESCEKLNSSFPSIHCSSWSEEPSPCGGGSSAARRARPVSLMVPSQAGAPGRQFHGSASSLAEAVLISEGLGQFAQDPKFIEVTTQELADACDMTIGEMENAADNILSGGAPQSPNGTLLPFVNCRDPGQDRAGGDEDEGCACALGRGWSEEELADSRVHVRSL
Method: [Calcium antagonistic effect]
Using a spiral blood vessel specimen taken from a thoracic aorta of Hartly male giunea pig weighed 400 to 600 g, a contraction response by calcium was measured as a dose-response curve according to Magnus method and the antagonistic activity for each test compound was indicated as above-mentioned pA2 value.

[4] = biological target: T2, α-adrenergic blockade (vas deferens specimen, contraction by noradrenalin) (Rattus norvegicus, UniProt P43140); assay: α-Adrenergic blockade effect (contraction response by noradrenalin of vas deferens specimen, Magnus method); design: species or system Wister male rat
T2 construct: from tissue; host or cells: vas deferens of six-week-old male Wistar rat
T2 sequence (P43140 1-466): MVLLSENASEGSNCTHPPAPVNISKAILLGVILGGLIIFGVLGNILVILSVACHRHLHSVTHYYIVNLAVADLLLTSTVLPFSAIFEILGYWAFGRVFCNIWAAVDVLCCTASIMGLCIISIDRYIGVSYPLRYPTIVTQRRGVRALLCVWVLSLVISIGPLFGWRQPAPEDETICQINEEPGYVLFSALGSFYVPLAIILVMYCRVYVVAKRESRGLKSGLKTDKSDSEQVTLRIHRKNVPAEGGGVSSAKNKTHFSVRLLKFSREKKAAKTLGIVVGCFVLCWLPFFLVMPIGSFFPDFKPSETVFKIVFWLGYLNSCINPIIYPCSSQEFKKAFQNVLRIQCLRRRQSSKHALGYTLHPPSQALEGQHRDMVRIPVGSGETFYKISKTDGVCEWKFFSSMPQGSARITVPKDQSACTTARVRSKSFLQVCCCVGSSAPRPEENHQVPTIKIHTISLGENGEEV

[5] = 10 mg/kg, maximum over 1, 3, 5, 7 hours (Table 2)
[6] = 100 mg/kg, maximum over 1, 3, 5, 7 hours (Table 2)
[7] = 100 mg/kg, maximum over 1, 3, 5, 7 hours (Table 3)
[8] = rat vas deferens, antagonism of noradrenalin contraction, pA2 = negative logarithm of antagonist dose shifting agonist curve two times, read-out: α-Adrenergic blockade effect, pA2 value (converted)
[9] = rat vas deferens, antagonism of noradrenalin contraction, pA2 = negative logarithm of antagonist dose shifting agonist curve two times

Row | SMILES | Maximum value of change, heart rate [1, 5] | Maximum value of change, systolic pressure [1, 5] | Maximum value of change, heart rate [1, 6] | Maximum value of change, systolic pressure [1, 6] | LD50 at 168 h [2] | Maximum value of change, heart rate [1, 7] | Maximum value of change, systolic pressure [1, 7] | Kb [3] | Kb [4, 8] | other results
1 | CCOC(=O)c1cc2cccc(OCC(O)CN3CCN(c4ccccc4OC)CC3)c2o1 (centres unmarked) [Ex. 18, 2-ethoxycarbonyl-7-{2-hydroxy-3-[4-(2-methoxyphenyl)-piperazinyl]propoxy}benzofuran] | -96.7 ± 35.1 beats/min | -35.8 ± 4.6 mmHg | -138.3 ± 25.4 beats/min | -65.1 ± 5.5 mmHg |  |  |  |  |  | 
2 | COc1ccccc1N1CCN(CC(O)COc2cccc3cc(C(C)=O)oc23)CC1 (centres unmarked) [Ex. 2, 2-acetyl-7-{2-hydroxy-3-[4-(2-methoxyphenyl)piperazinyl]-propoxy}benzofuran] | -121.7 ± 15 beats/min | -54.8 ± 11.2 mmHg | -155.6 ± 15.5 beats/min | -72.4 ± 8.9 mmHg | > 1500 mg/kg |  |  |  |  | 
3 | COc1ccc(N2CCN(CC(O)COc3cccc4cc(C(C)=O)oc34)CC2)cc1 (centres unmarked) [Ex. 3 (HCl salt), 2-acetyl-7-{2-hydroxy-3-[4-(4-methoxyphenyl)piperazinyl]-propoxy}benzofuran] |  |  |  |  | 700 mg/kg | -200.0 ± 28.4 beats/min | -22.9 ± 1.7 mmHg | 0.631 µM | 0.457 µM | 
4 | CCOC(=O)c1cc2cc(OCC(O)CN3CCN(c4ccccc4OC)CC3)ccc2o1 (centres unmarked) [Ex. 19, 2-ethoxycarbonyl-5-{2-hydroxy-3-[4-(2-methoxyphenyl)piperrazinyl]propoxy}benzofuran] | -68.4 ± 45.1 beats/min | -37.6 ± 9.0 mmHg | -73.4 ± 19.6 beats/min | -60.1 ± 10.8 mmHg |  |  |  |  |  | 
5 | COc1ccc(N2CCN(CC(O)COc3cccc4cc(C(N)=O)oc34)CC2)cc1 (centres unmarked) [Ex. 10, 2-carbamoyl-7-{2-hydroxy-3-[4-(4-methoxyphenyl)piperazinyl]porpoxy,}benzofuran] |  |  |  |  | 1100 mg/kg | -80.0 ± 37.6 beats/min | -97.9 ± 4.0 mmHg | 1.26 µM | 0.0871 µM | α-Adrenergic blockade effect, relative ratio as compared with Phentolamine [4]: 1.8
6 | CCOC(=O)c1cc2cc(OCC(O)CN3CCN(c4ccccc4C)CC3)ccc2o1 (centres unmarked) [Ex. 20, 2-ethoxycarbonyl-5-{2-hydroxy-3-[4-(2-methylphenyl)-piperazinyl]propoxy}benzofuran] | -81.1 ± 22.2 beats/min | -57.5 ± 12.5 mmHg | -87.5 ± 17.7 beats/min | -80.7 ± 13.6 mmHg |  |  |  |  |  | 
7 | CCOC(=O)c1cc2cccc(OCC(O)CN3CCN(c4ccccc4OC)CC3)c2o1 (centres unmarked) [Ex. 18 (HCl salt), 2-ethoxycarbonyl-7-{2-hydroxy-3-[4-(2-methoxyphenyl)-piperazinyl]propoxy}benzofuran] |  |  |  |  | > 1000 mg/kg |  |  | 0.209 µM | 0.0741 µM | 
8 | Cc1ccccc1N1CCN(CC(O)COc2cccc3cc(C(N)=O)oc23)CC1 (centres unmarked) [Ex. 13, 2-carbamoyl-7-{2-hydroxy-3-[4-(2-methylphenyl)piperazinyl]propoxy}benzofuran] |  |  |  |  | > 1500 mg/kg | -80.0 ± 16.6 beats/min | -97.0 ± 9.8 mmHg | 1.35 µM | 0.24 µM | 
9 | COc1ccccc1N1CCN(CC(O)COc2ccc3oc(C(N)=O)cc3c2)CC1 (centres unmarked) [Ex. 12] |  |  |  |  | > 1500 mg/kg | -110.0 ± 20.0 beats/min | -100.2 ± 3.9 mmHg | 1.17 µM | 0.1 µM | α-Adrenergic blockade effect, relative ratio as compared with Phentolamine [4]: 1.6
10 | COc1ccc([C@@H]2Sc3ccccc3N(CCN(C)C)C(=O)[C@@H]2OC(C)=O)cc1 [Diltiazem, reference compound] | -140.0 ± 27.5 beats/min | -12.8 ± 5.7 mmHg | -136.7 ± 34.2 beats/min | -79.9 ± 11.6 mmHg |  | -136.7 ± 34.2 beats/min | -79.9 ± 11.6 mmHg |  |  | 
11 | CC(=O)c1cc2cc(OCC(O)CN3CCN(c4ccccc4C)CC3)ccc2o1 (centres unmarked) [Ex. 7 (HCl salt)] |  |  |  |  | > 2000 mg/kg |  |  | 0.631 µM | 0.219 µM | 
12 | CCOC(=O)c1cc2cc(OCC(O)CN3CCN(c4ccccc4C)CC3)ccc2o1 (centres unmarked) [Ex. 20 (HCl salt), 2-ethoxycarbonyl-5-{2-hydroxy-3-[4-(2-methylphenyl)-piperazinyl]propoxy}benzofuran] |  |  |  |  | > 1500 mg/kg |  |  |  |  | Calcium antagonistic effect, pA2 value [3]: 4.88 ± 0.70; α-Adrenergic blockade effect, pA2 value [4, 9]: 6.46 ± 0.09
13 | COc1ccccc1N1CCN(CC(O)COc2cccc3cc(C(=O)O)oc23)CC1 (centres unmarked) [Ex. 21 (HCl salt), 2-carboxy-7-{2-hydroxy-3-[4-(2-methoxyphenyl)piperazinyl]propoxy}benzofuran] |  |  |  |  | > 1000 mg/kg |  |  | 3.31 µM | 0.355 µM | 
14 | CC(=O)c1cc2cccc(OCC(O)CN3CCN(c4ccccc4C)CC3)c2o1 (centres unmarked) [Ex. 6, 2-acetyl-7-{2-hydroxy-3-[4-(2-methylphenyl)-piperazinyl]propoxy}benzofuran] | -70.0 ± 20.3 beats/min | -71.7 ± 4.9 mmHg | -135.8 ± 17.0 beats/min | -90.3 ± 9.2 mmHg |  |  |  |  |  | 
15 | COc1ccccc1N1CCN(CC(O)COc2ccc3oc(C(C)=O)cc3c2)CC1 (centres unmarked) [Ex. 5] | -49.2 ± 28.0 beats/min | -56.3 ± 6.0 mmHg | -143.4 ± 34.2 beats/min | -101.3 ± 5.2 mmHg |  |  |  |  |  | 
16 | CCOC(=O)c1cc2cc(OCC(O)CN3CCN(c4ccccc4OC)CC3)ccc2o1 (centres unmarked) [Ex. 19 (HCl salt), 2-ethoxycarbonyl-5-{2-hydroxy-3-[4-(2-methoxyphenyl)piperrazinyl]propoxy}benzofuran] |  |  |  |  | > 1500 mg/kg |  |  |  |  | Calcium antagonistic effect, pA2 value [3]: 5.28 ± 0.14; α-Adrenergic blockade effect, pA2 value [4, 9]: 6.72 ± 0.03
17 | CC(=O)c1cc2cc(OCC(O)CN3CCN(c4ccccc4C)CC3)ccc2o1 (centres unmarked) [Ex. 7] | -45.0 ± 17.2 beats/min | -86.4 ± 8.6 mmHg | -51.3 ± 20.2 beats/min | -117.5 ± 12.6 mmHg |  |  |  |  |  | 
18 | COc1ccccc1N1CCN(CC(O)COc2cccc3cc(C(=O)O)oc23)CC1 (centres unmarked) [Ex. 21, 2-carboxy-7-{2-hydroxy-3-[4-(2-methoxyphenyl)piperazinyl]propoxy}benzofuran] | -5.8 ± 8.7 beats/min | -46.9 ± 6.3 mmHg | -25.7 ± 16.4 beats/min | -73.8 ± 9.9 mmHg |  |  |  |  |  | 
19 | CC(=O)c1cc2cccc(OCC(O)CN3CCN(c4ccccc4C)CC3)c2o1 (centres unmarked) [Ex. 6 (HCl salt), 2-acetyl-7-{2-hydroxy-3-[4-(2-methylphenyl)-piperazinyl]propoxy}benzofuran] |  |  |  |  | > 1500 mg/kg |  |  | 0.468 µM | 0.0447 µM | 
20 | CC(CCc1ccccc1)NCC(O)c1ccc(O)c(C(N)=O)c1 (centres unmarked) [Labetalol, reference compound] | -122.5 ± 37.5 beats/min | -32.9 ± 12.9 mmHg | -125.2 ± 25.6 beats/min | -55.0 ± 9.1 mmHg |  | -125.2 ± 25.6 beats/min | -55.0 ± 9.1 mmHg |  |  | Kb [4]: 1.51 µM
